Assay results from patent US10676486B2, “Macrocyclic RIP2 kinase inhibitors” (ONCODESIGN S.A., priority 2014, dated 2020).

Legend:
RIP2 recombinant protein = RIP2 recombinant protein (Homo sapiens, UniProt O43353); test: Radiometric protein kinase assay (33PanQinase Activity Assay) for RIP2, peptide-based; format: biochemical; conditions: for remaining activity at 0.1 µM / remaining activity at 1 µM: 1 h; for remaining activity at 0.1 µM: compound at 0.1 μM; for remaining activity at 1 µM: compound at 1 μM; for IC50: ATP 3.0 μM, RIP2 15.7 nM, 30° C., 60 minutes
RIP2 recombinant protein, sequence (O43353 whole entry): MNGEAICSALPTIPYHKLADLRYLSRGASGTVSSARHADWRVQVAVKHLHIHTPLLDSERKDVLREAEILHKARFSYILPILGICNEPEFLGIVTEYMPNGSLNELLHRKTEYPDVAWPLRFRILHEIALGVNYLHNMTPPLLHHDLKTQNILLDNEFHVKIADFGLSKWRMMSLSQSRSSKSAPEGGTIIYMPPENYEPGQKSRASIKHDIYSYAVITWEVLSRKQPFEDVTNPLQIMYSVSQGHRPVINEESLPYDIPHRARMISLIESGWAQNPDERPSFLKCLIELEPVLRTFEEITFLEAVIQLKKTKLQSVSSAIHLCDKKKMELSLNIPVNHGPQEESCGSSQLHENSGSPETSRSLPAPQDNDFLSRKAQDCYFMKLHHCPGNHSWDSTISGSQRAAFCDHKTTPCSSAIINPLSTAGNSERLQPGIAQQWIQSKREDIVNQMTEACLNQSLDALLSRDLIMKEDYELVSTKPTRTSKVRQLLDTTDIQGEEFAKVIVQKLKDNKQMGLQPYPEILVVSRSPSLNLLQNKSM
Experimental: The inhibition of RIP2 kinase was assessed using RIP2 recombinant protein in an in vitro peptide-based kinase assay.
A radiometric protein kinase assay (^33PanQinase® Activity Assay) is used for measuring the kinase activity. All assays are performed in 96-well FlashPlates™ from Perkin Elmer in a 50 μl reaction volume. The reaction cocktail is pipetted in 4 steps in the following order: • 10 μl of non-radioactive ATP solution (in H2O) • 25 μl of assay buffer/[γ-^33P]-ATP mixture • 5 μl of test sample in 10% DMSO • 10 μl of enzyme/substrate mixture
The assay for RIP2 contains 70 mM HEPES-NaOH pH 7.5, 3 mM MgCl2, 3 mM MnCl2, 3 μM Na-orthovanadate, 1.2 mM DTT, 50 μg/mI PEG20000, ATP (3.0 μM), [γ-^33P]-ATP (approx. 5×10^05 cpm per well), protein kinase RIP2 (15.7 nM) and substrate (RBER-Chktide), 2.0 μg/50 μl).
The reaction cocktails were incubated at 30° C. for 60 minutes. The reaction was stopped with 50 μl of 2% (v/v) H3PO4, plates were aspirated and washed two times with 200 μl 0.9% (w/v) NaCl. Incorporation of ^33Pi (counting of “cpm”) was determined with a microplate scintillation counter.
The compounds are dissolved to 10 mM in DMSO. Where needed, solutions are sonicated in a bath sonicator.
Table 4 provides the pIC50 values and % Remaining activity values at two concentrations (1 μM and 0.1 μM) of the compounds according to the invention, obtained using the above mentioned kinase assay.

[1] = several clinical cases; The Oncologist (2013) 18: e3-e5; cited from earlier work
RIP2 = target: T1, RIP2 (Mus musculus, UniProt P58801); conditions: mouse models of chronic inflammatory bowel diseases; J Biol Chem. (2005) 15, 14981-14988; cited from earlier work
T1 construct: host or cells: mouse (in vivo colitis models)
T1 sequence (P58801 whole entry): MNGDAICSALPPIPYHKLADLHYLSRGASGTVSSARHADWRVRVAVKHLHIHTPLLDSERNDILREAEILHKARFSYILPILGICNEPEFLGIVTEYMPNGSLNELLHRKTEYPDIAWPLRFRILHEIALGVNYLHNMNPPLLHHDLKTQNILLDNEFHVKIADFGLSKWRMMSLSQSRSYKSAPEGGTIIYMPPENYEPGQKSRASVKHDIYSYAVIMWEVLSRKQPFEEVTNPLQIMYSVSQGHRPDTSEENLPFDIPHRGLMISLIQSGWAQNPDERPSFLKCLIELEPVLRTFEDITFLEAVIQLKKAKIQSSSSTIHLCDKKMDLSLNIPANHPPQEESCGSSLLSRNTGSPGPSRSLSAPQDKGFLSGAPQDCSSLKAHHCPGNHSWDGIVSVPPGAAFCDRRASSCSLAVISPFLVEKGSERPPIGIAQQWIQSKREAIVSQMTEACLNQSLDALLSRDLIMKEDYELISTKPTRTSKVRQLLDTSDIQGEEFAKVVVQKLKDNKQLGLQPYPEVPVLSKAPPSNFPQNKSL

Compound	melting point [°C]	remaining activity at 0.1 µM (RIP2 recombinant protein) [%]	remaining activity at 1 µM (RIP2 recombinant protein) [%]	IC50 (RIP2 recombinant protein) [nM]	clinical effect on psoriasis, arthritic symptoms or insulin-resistant type 2 diabetes [1]	effect on induced colitis (RIP2)
CN1C[C@@H]2CCCN2CCOc2cccc(c2)-c2cnn3ccc1nc23 [Compound O10]	198.5	< 50	< 50	< 100	–	–
COc1cc2ncnc(Nc3ccc(F)c(Cl)c3)c2cc1OCCCN1CCOCC1 [Gefitinib]	–	–	–	–	efficient to clear psoriasis or reduce arthritic symptoms or insulin-resistant type 2 diabetes	–
c1cc2cc(c1)-c1cnn3ccc(nc13)NC[C@@H]1CCCN1CCO2 [Compound O8]	> 300	< 50	< 50	< 100	–	–
c1cc2cc(c1)-c1cnn3ccc(nc13)NCC1CCCN1CCO2 (stereo not drawn) [Compound O1]	> 300	< 50	< 50	< 100	–	–
Fc1cc2cc(c1)-c1cnn3ccc(nc13)NC[C@@H]1CCCN1CCO2 [Compound O5]	241	< 50	< 50	< 100	–	–
Fc1cc2cc(c1)-c1cnn3ccc(nc13)NCC1CCCCN1CCCO2 (stereo not drawn) [Compound O14]	–	–	–	< 100	–	–
Fc1cc2cc(c1)-c1cnn3ccc(nc13)NC[C@@H]1CCCN1CCCO2 [Compound O11]	–	< 50	< 50	< 100	–	–
Fc1cc2cc(c1)-c1cnn3ccc(nc13)NCC1CCCCN1CCO2 (stereo not drawn) [Compound O13]	–	< 50	< 50	< 100	–	–
Clc1cc2cc(c1)-c1cnn3ccc(nc13)NC[C@@H]1CCCN1CCO2 [Compound O4]	> 300	< 50	< 50	< 100	–	–
Clc1cc2cc(c1)-c1cnn3ccc(nc13)NC[C@@H]1CCCN1CCCO2 [Compound O9]	> 300	< 50	< 50	< 100	–	–
C#Cc1cccc(Nc2ncnc3cc(OCCOC)c(OCCOC)cc23)c1 [Erlotinib]	–	–	–	–	efficient to clear psoriasis or reduce arthritic symptoms or insulin-resistant type 2 diabetes	–
Fc1cc2cc(c1)-c1cnn3ccc(nc13)NCC[C@H]1CCCN1CCO2 [Compound O7]	> 300	< 50	< 50	< 100	–	–
CN1CC2CCCN2CCOc2cccc(c2)-c2cnn3ccc1nc23 (stereo not drawn) [Compound O2]	91.2	–	–	< 100	–	–
Fc1cc2cc(c1)-c1cnn3ccc(nc13)NC[C@H]1CCCN1CCCO2 [Compound O6]	> 300	< 50	< 50	< 100	–	–
C[S+]([O-])c1ccc(-c2nc(-c3ccncc3)c(-c3ccc(F)cc3)[nH]2)cc1 (stereo not drawn) [SB203580]	–	–	–	–	–	efficacious to reduce induced-colitis
Fc1c(Cl)cc2cc1OCCN1CCC[C@H]1CNc1ccn3ncc-2c3n1 [Compound O12]	–	< 50	< 50	< 100	–	–
Clc1cc2cc(c1)-c1cnn3ccc(nc13)NC[C@H]1CCCN1CCCO2 [Compound O3]	186.4	< 50	< 50	< 100	–	–
